Results reported in US20230098403A1, “MAGNETIC RESONANCE IMAGING CONTRAST AGENT, PREPARATION METHOD AND USE THEREOF” (GUANGZHOU PINGLAN MEDICAL TECHNOLOGY CO., LTD., priority 2020, published 2023).
Where “and” joins values, the source holds several entries; their conditions need not be identical. Equal entries are not always repeated.

Key:
[1] = Pharmacokinetics study, Mn^2+ in whole blood by ICP-MS; type: in vivo; details: SD rats, caudal vein 0.1 mmol/kg, non-compartment model
Method: Totally 8 SD rats, 3 female rats and 5 male rats, weighed 220 to 240 g, were anesthetized by intraperitoneal injection of 3% pentobarbital sodium (50 mg/kg) and fixed in supine position, followed by removing neck hair and disinfecting routinely for later use.
Catheterization of left carotid artery comprises steps as follows: making a 20 mm longitudinal incision from the 3 mm left side of the median cervical line (the line from the sternum to the mandible) and 7 mm above the sternum; dissecting the skin to expose the subcutaneous tissue, and performing a blunt layer-by-layer dissection until the carotid artery was visualized; separating […] from its accompanied veins by blunt dissection; ligating distal portion and proximal portion of the heart respectively, wherein the distance between the nodes was 2.5-3.5 cm; inserting an indwelling needle into the artery near the node at the distal portion of the heart and fixing with a hemostatic clip, taking the needle out and releasing the node at the proximal portion of the heart; and injecting heparin lithium (150 μg/kg) to perform systemic heparinization in body.
Caudal vein was rapidly injected (<5s) with KBR0826 solution (0.05 mmol/mL) at a dose of 0.1 mmol/kg. Before injection and within 1 min, 2 min, 3 min, 5 min, 8 min, 13 min, 20 min, 30 min, and 50 min after the injection, 0.1 mL of carotid blood was respectively collected and placed in a 0.5 mL EP tube and stored at −20° C.
ICP-MS was configured with a power of 1150 W, a flow rate of argon for atomization gas of 0.95 L·min^−1, a flow rate of argon for auxiliary gas of 1.2 L·min^−1, a flow rate of argon for plasma gas of 18 L·min^−1, pump speed of 20 r·min^−1, an analytic mode being standard mode, repetition sampling in triple.
A set of standard solution was prepared with standard reagents (PerkinElmer, […] (1000 ppb): Ag, Al, As, Cs, Cu, Sr, Se, Mn, etc.) at different concentrations, i.e., at 1.0 ppb, 10 ppb, 50 ppb, 100 ppb, 200 ppb and 1000 ppb, to establish a standard curve (as shown in FIG. 3), and R^2 for the linear equation was >0.9999.
20 μL of sample (whole blood) was collected and diluted to 6 to 10 mL with 1% HNO3, such that the concentration of Mn^2+ ranged from 1 ppb to 100 ppb; sample IDs were generated and then the samples were measured, and Mn^2+ concentrations of the sample solutions were calculated according to the response intensity and the standard curve.
PKSolver 2.0 was used for calculating relevant pharmacokinetic parameters.

QSG7701 hepatocyte line = experiment: Hepatocyte toxicity test (MTT); type: cell-based, human
Method: One or two days later, when the cell density meet the requirements of passage (the cell growth rate reaches 80-90%), the cells were washed 1 to 2 times with PBS, and then PBS was removed and 1 mL trypsin was added to completely cover the surface of the cells for 1 to 2 minutes, followed by observing under an inverted microscope. When more than 90% of the cells have become large and round and could be shaken gently to remove a little, complete medium (DMEM medium:FBS:antibiotic=100:10:1) was immediately added to stop digestion. The cells were blow and separated, transferred to a 15 mL centrifuge tube, which was centrifuged at 1000 rpm for 5 min at room temperature, then the supernatant was removed. The cells were transferred to a […] petri dish, 5 to 10 ml fresh complete medium was added for further culture. Culture medium was changed after 2-3 days or subcultured in a ratio of 1:2 and 1:3.
2) Cryopreservation: when the cells were in the logarithmic growth phase and the growth state was good, cryopreservation was selected and a cryopreservation solution (DMEM:FBS:DMSO=6:3:1) was prepared as above, the cells were collected after stopping digestion and centrifuging in a centrifuge tube. The cells were suspended in the cryopreservation solution, the cell concentration (lx 10^6/mL to 10×10^6/mL) were adjusted and then the cells were divided into cryopreservation tubes, the cell type, date, cryopreserved person, and passage times were recorded. The tubes were placed in a gradient freezer box in a −80° C. freezer and transferred to a liquid nitrogen tank for storage the next day.
3) Cell recovery: a cryovial containing QSG7701 was taken out from the liquid nitrogen tank and put in a 37° C. water bath for 1 to 2 minutes and shaken quickly to thaw. The thawed cell fluid was transferred to a 15 mL centrifuge tube, centrifuged at 1000 rpm for 5 min at room temperature, then the supernatant was removed, and 5 to 10 mL fresh complete culture medium was added into it, the cell type, date, and the name of the culture person were recorded, the cells were cultured in a 37° C. incubator with 5% CO2. […]
4) Finally, the 96-well plate was taken out, the medium was removed, and 100 μl DMSO was added to the plate, shaken horizontally and mixed for 2-3 minutes to fully dissolve the crystals, and the OD value was read at the detection line of 595 nm with a microplate reader.
Origin 9.0 software was used for data mapping, and measurement data were expressed as mean±standard deviation (±sd); SPSS14.0 statistical software was used for data statistics, and univariate analysis was used.

Question: For `O=C([O-])CN(CP(=O)([O-])O)C1CCCCC1N(CC(=O)[O-])CP(=O)([O-])O.[Mn+2].[Na+].[Na+]` (stereo not drawn) [KBR0826], which AUC0-inf [1] is on record?
Answer: 734.55 ± 333.06 mg·min/L

Question: And the AUC0-t [1]?
Answer: 712.59 ± 325.70 mg·min/L

Question: And the AUMC0-inf [1]?
Answer: 8419.63 ± 9547.34 mg/L · min^2

Question: What about the C0 [1] of the same compound?
Answer: 616.61 ± 568.85 µg/mL

Question: What about the MRT0-inf [1] of the same compound?
Answer: 11.26 ± 8.93 min

Question: And the V [1]?
Answer: 0.38 ± 0.45 L/kg

Question: What about the Vss [1] of the same compound?
Answer: 0.17 ± 0.30 L/kg

Question: What about the “t1/2 (plasma half-life)” value [1] of the same compound?
Answer: 23 min and 22.87 ± 13.04 min

Question: And the “survival rate of the QSG7701 hepatocyte line” value (from here on “survival rate”) (QSG7701 hepatocyte line; 0.02 mmol/L, 0.1 mmol/L or 0.5 mmol/L, each detection time point (6 h, 12 h, 24 h, 48 h), MTT, OD 595 nm)?
Answer: does not decrease significantly

Question: What about the “survival rate” value (QSG7701 hepatocyte line; 2.5 mmol/L, 24 h and 48 h, p<0.05) of the same compound?
Answer: decrease significantly

Question: And the “survival rate” value (QSG7701 hepatocyte line; 12.5 mmol/L, at 12 h, p<0.05)?
Answer: decreases significantly

Question: What about the “inhibitory effect on the proliferation of QSG7701 hepatocyte line” value (QSG7701 hepatocyte line; within 24 hours, 25 times of the clinical dose (2.5 mmol/L)) of the same compound?
Answer: non-obvious inhibitory effect
